Measurements as given in US4420426A, “6-Alpha-halopenicillanic acid 1,1-dioxides” (Pfizer Inc., priority 1980, dated 1983).
≈ marks a conversion by molar mass, not a printed value.

What was measured:
Assay in all cases: In vitro antibacterial activity (MIC)
Format in all cases: cell-based
Streptococcus faecalis = conditions: Enterococcus faecalis
Source text: (§1) The compound of formula I, wherein R^1 is hydrogen, and salts thereof, are active as antibacterial agents of medium potency both in vitro and in vivo, and the compounds of formula I, wherein R^1 is an ester-forming residue readily hydrolyzable in vivo are active as antibacterial agents of medium potency in vivo.

Enterobacter clocae = system: Enterobacter clocae
Source text: as §1

Citrobacter freundii = system: Citrobacter freundii
Source text: as §1

Salmonella typhimurium = conditions: Salmonella enterica
Source text: as §1

Enterobacter aerogenes = conditions: Klebsiella aerogenes
Source text: as §1

Proteus mirabilis = system: Proteus mirabilis
Source text: as §1

Streptococcus pyogenes = system: Streptococcus pyogenes
Source text: as §1

Pseudomonas aeruginosa = system: Pseudomonas aeruginosa
Source text: as §1

Providencia = system: Providencia
Source text: as §1

Staphylococcus aureus = system: Staphylococcus aureus
Source text: as §1

Pseudomonas putida = system: Pseudomonas putida
Source text: as §1

Proteus morgani = system: Proteus morgani
Source text: as §1

Neisseria gonorrhoeae = system: Neisseria gonorrhoeae
Source text: as §1

Serratia marcescens = system: Serratia marcescens
Source text: as §1

Hemophilus influenzae = conditions: Haemophilus influenzae
Source text: as §1

Escherichia coli = system: Escherichia coli
Source text: as §1

Klebsiella pneumoniae = system: Klebsiella pneumoniae
Source text: as §1

Pasteurella multocida = system: Pasteurella multocida
Source text: as §1

Staphylococcus epidermis = system: Staphylococcus epidermis
Source text: as §1

For `CC1(C)[C@H](C(=O)O)N2C(=O)C[C@H]2S1(=O)=O` [Penicillanic Acid 1,1-Dioxide], the MIC (Streptococcus faecalis) was 200 µg/mL (≈ 857 µM), the MIC (Enterobacter clocae) was 100 µg/mL (≈ 429 µM) and the MIC (Citrobacter freundii) was 50 µg/mL (≈ 214 µM). It also gave an MIC (Salmonella typhimurium) of 50 µg/mL (≈ 214 µM), an MIC (Enterobacter aerogenes) of 25 µg/mL (≈ 107 µM) and an MIC (Proteus mirabilis) of 100 µg/mL (≈ 429 µM). It also gave an MIC (Streptococcus pyogenes) of 100 µg/mL (≈ 429 µM), an MIC (Pseudomonas aeruginosa) of 200 µg/mL (≈ 857 µM) and an MIC (Providencia) of 100 µg/mL (≈ 429 µM). It also gave an MIC (Staphylococcus aureus) of 100 µg/mL (≈ 429 µM), an MIC (Pseudomonas putida) of 200 µg/mL (≈ 857 µM) and an MIC (Proteus morgani) of 100 µg/mL (≈ 429 µM). For the same molecule, the MIC (Neisseria gonorrhoeae) was 0.312 µg/mL (≈ 1.34 µM), the MIC (Serratia marcescens) was 100 µg/mL (≈ 429 µM) and the MIC (Hemophilus influenzae) was 50 µg/mL (≈ 214 µM). It also gave an MIC (Escherichia coli) of 50 µg/mL (≈ 214 µM), an MIC (Klebsiella pneumoniae) of 50 µg/mL (≈ 214 µM) and an MIC (Pasteurella multocida) of 50 µg/mL (≈ 214 µM). The MIC (Staphylococcus epidermis) was 200 µg/mL (≈ 857 µM).
